Measurements published in US10308639B2, “Phosphatidylinositol 3-kinase inhibitors” (Gilead Sciences, Inc., priority 2014, dated 2019).

Columns and labels:
Format in all cases: biochemical
[1] = target: T1, PI3Kβ (Homo sapiens, UniProt P42338); assay: TR-FRET enzymatic activity assay, PI3Kβ; details: Table 2a; same assay
T1 construct: made in house

[2] = target: T2, PI3Kδ (Homo sapiens, UniProt O00329); assay: TR-FRET enzymatic activity assay, PI3Kδ; details: Table 2a; same assay
T2 construct: made in house

[3] = target: T3, PI3Kγ (Homo sapiens, UniProt P48736); assay: TR-FRET enzymatic activity assay, PI3Kγ; details: Table 2a; same assay; read-out: PI3Kγ IC50
T3 construct: made in house
In short: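 Enzymatic activity against the PI3K isoforms was measured using a time-resolved fluorescence resonance energy transfer (TR-FRET) assay.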

T1 sequence (P42338 whole entry): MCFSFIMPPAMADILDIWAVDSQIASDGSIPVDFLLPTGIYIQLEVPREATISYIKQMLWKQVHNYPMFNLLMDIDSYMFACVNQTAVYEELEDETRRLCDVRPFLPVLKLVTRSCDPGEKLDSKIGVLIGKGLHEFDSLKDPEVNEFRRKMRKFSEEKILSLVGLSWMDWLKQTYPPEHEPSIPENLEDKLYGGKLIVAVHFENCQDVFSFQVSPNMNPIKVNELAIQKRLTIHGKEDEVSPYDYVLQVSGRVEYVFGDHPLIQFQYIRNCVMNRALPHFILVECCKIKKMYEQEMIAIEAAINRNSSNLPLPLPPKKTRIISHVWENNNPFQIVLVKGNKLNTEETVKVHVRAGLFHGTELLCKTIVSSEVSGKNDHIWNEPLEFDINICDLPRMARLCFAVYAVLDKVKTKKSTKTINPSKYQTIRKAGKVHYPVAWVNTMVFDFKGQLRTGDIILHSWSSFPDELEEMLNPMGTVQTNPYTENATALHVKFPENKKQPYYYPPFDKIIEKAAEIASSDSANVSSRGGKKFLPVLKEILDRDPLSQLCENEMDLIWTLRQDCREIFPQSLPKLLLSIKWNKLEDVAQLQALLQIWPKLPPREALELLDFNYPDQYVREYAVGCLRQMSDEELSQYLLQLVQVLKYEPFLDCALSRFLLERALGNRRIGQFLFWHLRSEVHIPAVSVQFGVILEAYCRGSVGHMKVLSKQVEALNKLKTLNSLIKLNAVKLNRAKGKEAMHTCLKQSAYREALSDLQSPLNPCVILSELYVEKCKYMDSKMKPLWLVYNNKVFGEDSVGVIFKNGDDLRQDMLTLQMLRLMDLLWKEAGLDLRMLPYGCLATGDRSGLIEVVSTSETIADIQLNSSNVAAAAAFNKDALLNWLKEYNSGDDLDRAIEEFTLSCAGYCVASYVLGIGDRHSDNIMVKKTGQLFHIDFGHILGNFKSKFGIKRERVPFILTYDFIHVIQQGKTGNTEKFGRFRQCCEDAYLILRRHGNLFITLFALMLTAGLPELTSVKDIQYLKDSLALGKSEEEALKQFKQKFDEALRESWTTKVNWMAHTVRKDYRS
T1 sequence (P27986 whole entry partner): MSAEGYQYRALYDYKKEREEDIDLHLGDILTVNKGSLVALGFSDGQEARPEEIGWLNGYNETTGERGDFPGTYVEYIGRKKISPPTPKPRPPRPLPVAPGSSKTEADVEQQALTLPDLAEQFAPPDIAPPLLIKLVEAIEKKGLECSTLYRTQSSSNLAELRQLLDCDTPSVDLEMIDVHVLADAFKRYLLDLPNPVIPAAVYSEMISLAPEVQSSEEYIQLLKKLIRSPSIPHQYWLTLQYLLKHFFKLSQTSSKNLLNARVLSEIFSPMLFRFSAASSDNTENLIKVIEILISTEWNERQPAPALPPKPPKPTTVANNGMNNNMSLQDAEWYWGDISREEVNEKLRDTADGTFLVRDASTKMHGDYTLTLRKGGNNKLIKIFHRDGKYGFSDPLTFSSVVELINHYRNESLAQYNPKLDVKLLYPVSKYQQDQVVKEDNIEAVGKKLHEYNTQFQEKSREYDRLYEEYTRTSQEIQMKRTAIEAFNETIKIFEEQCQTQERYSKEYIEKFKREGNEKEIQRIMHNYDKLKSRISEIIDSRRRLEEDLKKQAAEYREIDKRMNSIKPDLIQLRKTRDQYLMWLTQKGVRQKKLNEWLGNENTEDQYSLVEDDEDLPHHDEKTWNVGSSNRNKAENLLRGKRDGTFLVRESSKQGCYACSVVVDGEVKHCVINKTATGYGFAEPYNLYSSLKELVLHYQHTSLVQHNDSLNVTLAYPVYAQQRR
T3 sequence (P48736 whole entry): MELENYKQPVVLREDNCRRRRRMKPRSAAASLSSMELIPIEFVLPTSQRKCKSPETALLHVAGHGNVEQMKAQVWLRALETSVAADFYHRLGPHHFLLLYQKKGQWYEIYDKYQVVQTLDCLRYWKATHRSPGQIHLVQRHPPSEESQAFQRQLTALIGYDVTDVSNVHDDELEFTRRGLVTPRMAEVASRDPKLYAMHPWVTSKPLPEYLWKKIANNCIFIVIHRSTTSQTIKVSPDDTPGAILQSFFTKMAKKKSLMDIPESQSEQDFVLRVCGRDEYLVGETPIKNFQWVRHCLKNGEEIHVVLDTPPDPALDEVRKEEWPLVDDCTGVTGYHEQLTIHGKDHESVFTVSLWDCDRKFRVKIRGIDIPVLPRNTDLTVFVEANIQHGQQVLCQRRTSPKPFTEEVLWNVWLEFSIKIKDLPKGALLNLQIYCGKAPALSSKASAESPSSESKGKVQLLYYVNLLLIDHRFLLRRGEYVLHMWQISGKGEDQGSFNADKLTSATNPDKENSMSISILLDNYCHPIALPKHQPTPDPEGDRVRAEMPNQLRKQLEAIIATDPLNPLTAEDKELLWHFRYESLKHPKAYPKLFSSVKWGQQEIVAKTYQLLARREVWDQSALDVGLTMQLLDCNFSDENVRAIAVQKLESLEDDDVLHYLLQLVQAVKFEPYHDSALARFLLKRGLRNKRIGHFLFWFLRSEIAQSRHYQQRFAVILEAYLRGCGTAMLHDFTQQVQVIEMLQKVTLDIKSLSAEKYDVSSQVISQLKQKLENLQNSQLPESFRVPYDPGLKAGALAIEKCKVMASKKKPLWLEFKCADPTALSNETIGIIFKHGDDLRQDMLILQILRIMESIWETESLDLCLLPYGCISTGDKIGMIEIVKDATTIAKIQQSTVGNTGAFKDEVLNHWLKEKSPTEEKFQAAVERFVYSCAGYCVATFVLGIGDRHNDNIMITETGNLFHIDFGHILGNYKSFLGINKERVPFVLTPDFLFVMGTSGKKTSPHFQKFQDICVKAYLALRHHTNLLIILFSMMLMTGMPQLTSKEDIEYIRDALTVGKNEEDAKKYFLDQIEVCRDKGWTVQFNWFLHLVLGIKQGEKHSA
T2 sequence (O00329 whole entry): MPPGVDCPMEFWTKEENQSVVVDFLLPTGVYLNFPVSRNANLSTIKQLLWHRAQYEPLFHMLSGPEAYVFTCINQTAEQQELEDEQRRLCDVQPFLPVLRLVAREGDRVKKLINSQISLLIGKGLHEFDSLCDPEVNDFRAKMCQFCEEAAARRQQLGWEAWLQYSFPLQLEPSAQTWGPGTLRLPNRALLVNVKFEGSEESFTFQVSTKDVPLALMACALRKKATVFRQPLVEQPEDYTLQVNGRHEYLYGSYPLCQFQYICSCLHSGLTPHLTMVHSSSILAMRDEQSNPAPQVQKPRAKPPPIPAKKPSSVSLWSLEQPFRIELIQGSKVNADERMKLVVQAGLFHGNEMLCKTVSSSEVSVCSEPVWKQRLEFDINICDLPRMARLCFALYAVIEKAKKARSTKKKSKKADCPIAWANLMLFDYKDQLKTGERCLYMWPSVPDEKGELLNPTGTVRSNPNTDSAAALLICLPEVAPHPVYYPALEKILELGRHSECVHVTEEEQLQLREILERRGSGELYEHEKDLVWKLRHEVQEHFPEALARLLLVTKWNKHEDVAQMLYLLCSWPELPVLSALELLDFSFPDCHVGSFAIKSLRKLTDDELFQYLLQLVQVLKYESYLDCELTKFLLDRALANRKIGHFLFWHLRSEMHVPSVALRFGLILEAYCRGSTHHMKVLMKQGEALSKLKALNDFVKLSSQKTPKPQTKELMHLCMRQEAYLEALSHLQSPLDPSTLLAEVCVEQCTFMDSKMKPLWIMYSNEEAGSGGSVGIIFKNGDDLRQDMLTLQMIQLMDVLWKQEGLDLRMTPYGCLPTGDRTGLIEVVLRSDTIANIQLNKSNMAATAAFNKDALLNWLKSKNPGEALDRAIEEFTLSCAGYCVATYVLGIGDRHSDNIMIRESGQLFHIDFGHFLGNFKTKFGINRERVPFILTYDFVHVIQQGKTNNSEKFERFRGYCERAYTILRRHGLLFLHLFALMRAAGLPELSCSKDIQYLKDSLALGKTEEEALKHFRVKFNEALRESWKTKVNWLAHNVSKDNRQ
T2 sequence (P27986 whole entry partner): as the sequence (P27986 whole entry partner) above

SMILES	IC50 [1]	IC50 [2]	IC50 [3]
CCC[C@H](Nc1nc(N)nc(N)c1C#N)c1nc2cccc(Cl)c2c(=O)n1-c1c[nH]cn1 [Compound 283, (S)-2,4-diamino-6-((1-(5-chloro-3-(1H-imidazol-4-yl)-4-oxo-3,4-dihydroquinazolin-2-yl)butyl)amino)pyrimidine-5-carbonitrile]	3 nM	2 nM	740 nM
C[C@H](Nc1nc(N)nc(N)c1Cl)c1nc2c(Cl)cc(F)cc2c(=O)n1-c1c[nH]cn1 [Compound 284, (S)-8-chloro-2-(1-((2,6-diamino-5-chloropyrimidin-4-yl)amino)ethyl)-6-fluoro-3-(1H-imidazol-4-yl)quinazolin-4(3H)-one]	340 nM	20 nM	> 10000 nM
C[C@H](Nc1nc(N)nc(N)c1C#N)c1nc2c(Cl)cc(F)cc2c(=O)n1-c1c[nH]cn1 [Compound 285, (S)-2,4-diamino-6-((1-(8-chloro-6-fluoro-3-(1H-imidazol-4-yl)-4-oxo-3,4-dihydroquinazolin-2-yl)ethyl)amino)pyrimidine-5-carbonitrile]	4 nM	1 nM	330 nM
C[C@H](Nc1nc(N)nc(N)c1C#N)c1nc2c(Cl)ccc(Cl)c2c(=O)n1-c1c[nH]cn1 [Compound 286, (S)-2,4-diamino-6-((1-(5,8-dichloro-3-(1H-imidazol-4-yl)-4-oxo-3,4-dihydroquinazolin-2-yl)ethyl)amino)pyrimidine-5-carbonitrile]	0.8 nM	0.3 nM	230 nM
Nc1nc(N)c(Cl)c(N[C@H](c2nc3cccc(Cl)c3c(=O)n2-c2c[nH]cn2)C2CC2)n1 [Compound 287, (S)-5-chloro-2-(cyclopropyl((2,6-diamino-5-chloropyrimidin-4-yl)amino)methyl)-3-(1H-imidazol-4-yl)quinazolin-4(3H)-one]	53 nM	8 nM	3000 nM
C[C@H](Nc1nc(N)nc(N)c1C#N)c1nc2cccc(Cl)c2c(=O)n1-c1c[nH]cn1 [Compound 288, (S)-2,4-diamino-6-((1-(5-chloro-3-(1H-imidazol-4-yl)-4-oxo-3,4-dihydroquinazolin-2-yl)ethyl)amino)pyrimidine-5-carbonitrile]	2 nM	0.7 nM	190 nM
C[C@H](Nc1nc(N)nc(N)c1C#N)c1nc2cccc(Cl)c2c(=O)n1-c1ccc[nH]1 [Compound 289, (S)-2,4-diamino-6-((1-(5-chloro-4-oxo-3-(1H-pyrrol-2-yl)-3,4-dihydroquinazolin-2-yl)ethyl)amino)pyrimidine-5-carbonitrile]	5 nM	0.2 nM	12 nM
C[C@H](Nc1ncnc2scnc12)c1nc2cccc(Cl)c2c(=O)n1-c1ccc[nH]1 [Compound 290, (S)-5-chloro-3-(1H-pyrrol-2-yl)-2-(1-(thiazolo[5,4-d]pyrimidin-7-ylamino)ethyl)quinazolin-4(3H)-one]	69 nM	0.5 nM	72 nM
C[C@H](Nc1ncnn2ccnc12)c1nc2cccc(Cl)c2c(=O)n1-c1ccc[nH]1 [Compound 291, (S)-5-chloro-2-(1-(imidazo[2,1-f][1,2,4]triazin-4-ylamino)ethyl)-3-(1H-pyrrol-2-yl)quinazolin-4(3H)-one]	140 nM	1 nM	170 nM
